Measurements: patent US10526370B2, “Pentapeptide associated with integrin receptor alpha vbeta3” (priority 2015, dated 2020)
“Also recorded” adds a separate entry of the source. Read-outs that look alike come from different tables or passages of the source. Where a SMILES comes first, the peptide text is derived from it. [ ]: non-standard residue; d: D form.

What was measured:
[1] = In vitro cellular cytotoxicity assay; assay type: cell-based; conditions: human
Description: When the U87MG cells, MCF-7 cells and normal liver cells L02 were grown to 90% confluent or higher, the cells were digested with 0.25% trypsin and then suspended in a complete growth medium to obtain a single cell suspension. The cells were plated at a density of 3000 cells/well in a 96-well plate, and cultured at 37° C. in an incubator containing 5% CO2. After 24-hour incubation, the medium was changed to a low-serum culture medium supplemented with 1% FBS. Then, the pentapeptide was added at different concentration gradients, to achieve a final concentration of 2.5, 5, 10, 20, 40, 80, 100 and 200 μM.

MDA-MB-231 cells = assay: In vitro cellular uptake assay (laser confocal microscopy); assay type: cell-based, human; conditions: MDA-MB-231, 500 μmol/L, 2-hour incubation at 37° C., FIG. 3
Description: (§1) The cultured human glioma cells U87MG, human breast cancer cells MDA-MB-231, human breast cancer cells MCF-7 and normal liver cells L02 were transferred to a confocal dish respectively, and incubated overnight. Then, the rhodamine B-labeled pentapeptide was added at the same concentration (500 μmol/L). The cyclic RGD labeled with the rhodamine B is added and used as a positive control. After 2-hour incubation at 37° C., the cells were stained with 12 μg/mL of the nuclear staining reagent Hochest 33342. Finally, the intracellular uptake of the probe was observed under a laser confocal microscope.

MCF-7 cells = assay: as above; assay type: cell-based, human; conditions: MCF-7, 500 μmol/L, 2-hour incubation at 37° C., FIG. 4
Description: as §1

U87MG cells [2] = assay: as above; assay type: cell-based, human; conditions: 500 μmol/L, 2-hour incubation at 37° C., FIG. 3
Description: as §1

L02 cells = assay: as above; assay type: cell-based; conditions: L02, 500 μmol/L, 2-hour incubation at 37° C., FIG. 4
Description: as §1

U87MG cells [3] = assay: In vitro cell affinity test (flow cytometry); assay type: cell-based, human; conditions: rhodamine-labeled peptides, FIG. 1
Description: The human malignant glioma cells (U87MG) and the human breast cancer cells (MDA-MB-231) were cultured in a 6-well plate for 12 hours. Then, 100 μL of a polypeptide fluorescent probe labeled with rhodamine B (final concentration 250 μM) was added and co-incubated for 2 hours with gently shaking on a shaker at 37° C. Next, the cells were digested with 0.05% trypsin and washed off from the 6-wells plate. The cells were re-suspended in 1 mL PBS buffer (pH 7.2), and centrifuged (3500 r, 5 min). The supernatant was aspirated and discarded. The pellet was washed twice with a PBS buffer (pH7.2). After washing, the cells were re-suspended in a PBS buffer (pH 7.2). The mean fluorescence intensity (MFI) of the cells was quantified by using a flow cytometer. The higher the fluorescence intensity is, the greater the affinity for the cells will be. When the probe has a high affinity for the receptor on the cells, the cells have a high value of MFI measured by the flow cytometer. […] The dye used as a blank has a MFI of 25.

## CSCC[C@H](NC(=O)[C@H](CC(N)=O)NC(=O)[C@@H](CCCNC(=N)N)NC(=O)[C@H](Cc1c[nH]c2ccccc12)NC(=O)[C@@H](N)CCCNC(=N)N)C(N)=O [pentapeptide, Arg-Trp-Arg-Asn-Met] (H-RW[dR]NM-NH2; N-terminus and C-terminus assumed)
[1]; MCF-7 cells, MCF-7, pentapeptide 2.5-200 μM, FIG. 6, read-out: cell survival rate
  viability: ≥ 80%
[1]; U87MG cells, pentapeptide 2.5-200 μM, FIG. 6, read-out: cell survival rate
  viability: ≥ 80%
[1]; normal liver cells L02, L02, pentapeptide 2.5-200 μM, FIG. 6, read-out: cell survival rate
  viability: ≥ 80%
MDA-MB-231 cells
  intracellular uptake of the probe (fluorescence intensity): strong ability to uptake; also recorded: strong fluorescence intensity
MCF-7 cells
  intracellular uptake of the probe (fluorescence intensity): poor affinity and low
U87MG cells [2]
  intracellular uptake of the probe (fluorescence intensity): strong ability to uptake; also recorded: strong fluorescence intensity
L02 cells
  intracellular uptake of the probe (fluorescence intensity): poor affinity and low
U87MG cells [3]
  affinity for U87 cells (comparison in words): greatest affinity
